The source of these data is US20240392302A1, “METHOD FOR DETECTING AND QUANTIFYING RNA” (FLUORESCENCE DIAGNOSIS (SHANGHAI) BIOTECH COMPANY LTD., priority 2021, published 2024).

The nature of data set [1]: Function detection of the nucleic acid aptamer: fluorescence activation of I-5-14 by N16-1, its mutants and base-modified forms. It is filed as biochemical. Conditions: for fluorescence activation effect of base-modified N16-1 for I-5-14: base-modified aptamers; for Activation Multiple: 0.5 μM I-5-14 with 2.5 μM RNA. Here is the method:
A primer containing T7 promoter was used for amplification of corresponding cDNA of RNA to be detected, and T7 RNA polymerase (purchased from Fermentas) was used for obtaining RNA by means of transcription with recovered double-stranded cDNA as a template. 10 μL of 3 M NaAc and 115 μL of DEPC water were added into 20 μL of transcription system, and were mixed well before 150 μL of phenol chloroform-[…] mixture (phenol:chloroform:[…]=25:24:1) was added; then the mixture was mixed well by means of oscillation, and the supernatant was taken after centrifugation at 10,000 rpm for 5 min. An equal volume of chloroform solution was added and was mix well by means of oscillation, and then the supernatant was taken after centrifugation at 10,000 rpm for 5 min; the process was repeated once. 2.5 times the volume of anhydrous ethanol was added into the supernatant, and the mixture was placed in a refrigerator at −20° C. for 30 min and was subject to centrifugation at 12,000 rpm at 4° C. for 5 min; then the supernatant was removed, and the precipitation was cleaned twice with 75% pre-cooled anhydrous ethanol. After volatilization of the ethanol, the precipitation was re-suspended with an appropriate amount of screening buffer, and then was treated at 75° C. for 5 min and was placed at room temperature for more than 10 min for subsequent experiments.
(§1) Nucleic acid aptamer molecules of N16 or N16 mutants were prepared by using the commonly-used experimental method (I), 2.5 μM of nucleic acid aptamer molecules and 0.5 μM of fluorophore molecules were incubated in a detection buffer (40 mM of HEPES, pH 7.4, 125 mM of KCl, 5 mM of MgCl2, 5% DMSO), and the maximum excitation peak and the maximum emission peak of the fluorescence of the nucleic acid aptamer-fluorophore molecular complex were detected with Synergy Neo2 multifunctional enzyme-labeler. Synergy Neo2 multifunctional enzyme-labeler was used again to detect fluorescence intensity of the nucleic acid aptamer-fluorophore molecular complex under its maximum excitation and emission conditions, the control sample ([…] of fluorophore molecules without nucleic acid aptamer) was also measured under the same conditions, and the ratio of fluorescence intensity was calculated. For example, as for fluorescence of the complex formed by 2.5 μM of N16-1 nucleic acid aptamer and 0.5 μM of I-5-14 fluorophore molecules, the maximum excitation peak is 512 nm and the maximum emission peak is 574 nm. It was detected by the Synergy Neo2 multifunctional enzyme-labeler that the fluorescence intensity of the complex at an excitation condition of 512±10 nm and an emission condition of 574 nm±10 nm was 49,088, while the fluorescence intensity of the control (0.5 μM of I-5-14 fluorophore molecules) under the same detection conditions was 399, so the activation multiple of N16-1 nucleic acid aptamer to I-5-14 fluorophore molecules was 123.
According to the results, most N16-1 mutants with a single base mutation retained a relatively strong fluorescence activation effect (no smaller than 2 times) on I-5-14 (Table 2). Some N16-1 mutants with 2 to 5 base mutations still retained a relatively strong fluorescence activation effect (greater than 20 times) for I-5-14 (Table 3). In a word, many single-base and multi-base mutants of N16-1 might still retain the aptamer function of activating the 1-5-14 fluorophore molecules.

Data set [2] concerns F30-N16-1 RNA aptamer molecules. The data set is described as follows: Binding of F30-N16-1 RNA aptamer molecules with different fluorescent molecules (fluorescence spectrum, activation multiple). It is filed as biochemical. Particulars: for Maximum emission peak (nm) / Maximum excitation peak (nm): complex with F30-N16-1; for Activation Multiple: fluorophore with F30-N16-1. Here is the method:
as §1
F30-N16-1 RNA aptamer molecules were prepared by using the commonly-used experimental method (I), and were used for detecting basic properties, including fluorescence spectrum and fluorescence activation multiple, of the binding of I-5-14 analogues with N16.

Data set [3] can be described thus: Spectral properties (excitation, emission, light absorption) of N16-1-I-5-14 complex. Conditions: 2 μM I-5-14 with 10 μM N16-1, or 5 μM pure I-5-14. It is filed as physicochemical. Here is the method: In order to detect the spectral properties of N16-1-I-5-14 complex, N16-1 (SEQ ID NO: 1) RNA was prepared by using the commonly-used experimental method (I). 1 μM of I-5-14 was incubated with 5 μM of N16-1. According to the results, the maximum excitation light of N16-1-I-5-14 complex was 512 nm, and the maximum emission light thereof was 574 nm (FIG. 3B).
In order to detect the difference between the light absorption of N16-1-I-5-14 complex and that of I-5-14 fluorophore molecules per se, 2 μM of I-5-14 incubated with 10 μM of N16-1, or 5 μM of pure I-5-14 was used for detecting the light absorption of I-5-14 and that of N16-1-I-5-14 complex respectively.

Data set [4] relates to BL21 (DE3, Star) Escherichia coli strain expressing F30-N16-1. Briefly: Labeling of RNA in bacteria by F30-N16-1-I-5-14 complex. It is filed as cell-based. Conditions: F30-N16-1 induced with 1 mM IPTG 4 h; PBS with 2 μM I-5-14. The source says: In order to detect the effect of F30-N16-1-I-5-14 in bacteria, a bacterial expression plasmid expressing F30-N16-1 (SEQ ID NO: 2) was constructed first. F30-N16-1 in Example 2 was amplified with primers, pET28a was amplified with primers so as to remove the promoter and polyclonal site region, and then the F30-N16-1 DNA fragment obtained by means of amplification was connected to pET28a linearized vector by using the experimental method (III), and the obtained recombinant plasmid was named as pET28a-T7-F30-N16-1.
BL21 (DE3, Star) Escherichia coli strain was transformed with recombinant plasmid pET28a-T7-F30-N16-1, and monoclone was picked and cultured at 37° C.; when OD600 is about 0.2, 1 mM of IPTG was added to induce the expression of F30-N16-1, and bacteria were collected 4 h later; resuspension was performed with a PBS solution containing 2 μM of I-5-14. BL21 (DE3, Star) Escherichia coli with transformed pET28a empty vector served as control.

Data set [5] relates to 293T/17 cells expressing F30-N16-1. Briefly: Labeling of RNA in mammalian cells by F30-N16-1 and I-5-14. It is filed as cell-based. Conditions: 1 μm of I-5-14 added 36 h after transfection. Here is the method:
Main imaging experiments in the examples were carried out by using a confocal laser microscope Leica SP8 equipped with white laser, and an HCXPL APO 63×1.47 oil mirror and a HyD detector were used.
In order to detect labeling of RNA in mammalian cells by using F30-N16-1 and I-5-14, a mammalian cell expression plasmid expressing F30-N16-1 (SEQ ID NO: 2) was constructed. F30-N16-1 in Example 9 was amplified with primers P1, P2, and P3, respectively.
These fragments were inserted into pLKO.1 puro vector by using the experimental method (III), an expression vector obtained thereby was named as pLKO.1-F30-N16-1, and the plasmid expressed F30-N16-1.
293T/17 cells were transfected with pLKO.1-F30-N16-1 plasmid, […] of I-5-14 was added 36 h later so as to label F30-N16-1, cells not expressing the corresponding aptamer served as control, and the labeling effect was detected by using experimental method (V).

The nature of data set [6]: Binding constant of N16-1 and I-5-14. Conditions: 10 nM N16-1 with I-5-14 of different concentrations. Here is the method:
In order to detect the binding constant of N16-1 and I-5-14, 10 nM of N16-1 was incubated with I-5-14 of different concentrations, so that fluorescence values thereof could be detected. According to the results, the binding constant of N16-1 and I-5-14 was 15.69 nM (FIG. 3D).

[7] abbreviates: complex of 2.5 μM N16-1 and 0.5 μM I-5-14.

As a reminder, the Kd is the concentration at which binding is half-saturated. Lower therefore signals higher affinity.

In the case of “N16-2: base-modified N16-1, SEQ ID NO: 4, stem-loop structure bases replaced with deoxyribonucleotides (GGGCNCCAGGNGCNGCNNCGGCAGGNAACGGACNNAGANCCACNGNACGCCC; some stem-loop nucleotides deoxyribonucleotides, positions not given here)”, in data set [1], the “fluorescence activation effect of base-modified N16-1 for I-5-14” value is reported as “significantly activate”.
In the case of `CN(CCO)c1ccc(/C=C2\SC(=S)NC2=O)cc1` [I-5-14], in data set [1] (0.5 μM I-5-14 without nucleic acid aptamer, same detection conditions), the “fluorescence intensity of the control” value is given as 399. In data set [2], the “Maximum emission peak (nm)” value is 574 nm, the “Maximum excitation peak (nm)” value was 513 nm and the “Activation Multiple” value stood at 123. Besides, the maximum light absorption in data set [3] is given as 477 nm. In addition, the fluorescence of bacteria result in data set [4] was “bright yellow fluorescence”. Further, the “labeling effect (fluorescence imaging)” value in data set [5] is recorded as “very bright yellow fluorescence”.
For “N16-1: nucleic acid aptamer with a sequence SEQ ID NO: 1 (GGGCNCCAGGNGCNGCNNCGGCAGGNAACGGACNNAGANCCACNGNACGCCC; RNA, backbone and the base at N not given here)”, in data set [1] (2.5 μM N16-1, 0.5 μM I-5-14, excitation 512±10 nm, emission 574 nm±10 nm), the “fluorescence intensity of the complex” value is reported as 49,088. Also, the “activation multiple of N16-1 nucleic acid aptamer to I-5-14 fluorophore molecules” value in data set [1] (2.5 μM N16-1, 0.5 μM I-5-14, excitation 512±10 nm, emission 574±10 nm) was determined as 123. The “Activation Multiple” value in data set [1] (N16-1 mutants containing a single base mutation) is 123. Moreover, the “Activation Multiple” value in data set [1] (N16-1 mutants containing multi-base mutation) turned out to be 123. In data set [1] (setting [7]), the maximum emission peak stood at 574 nm and the maximum excitation peak was found to be 512 nm. This compound also had a Kd in data set [6] of 15.7 nM.
`CN(CCO)c1ccc(/C=C2\OC(=O)N(CCC(=O)O)C2=O)c(F)c1` [I-5-25]: in data set [2], the “Maximum emission peak (nm)” value is 502 nm, the “Maximum excitation peak (nm)” value was found to be 403 nm and the “Activation Multiple” value came to 6.
As for `CN1C(=O)S/C(=C\c2ccc3c(c2)SCCN3C)C1=S` [I-5-32], in data set [2], the “Maximum emission peak (nm)” value is listed as 625 nm, the “Maximum excitation peak (nm)” value was determined as 519 nm and the “Activation Multiple” value is listed as 15.
For `CN1CCOc2cc(/C=C3\SC(=S)NC3=O)ccc21` [I-5-37], in that order: 603 nm, 497 nm and 256.
For `CN(C)c1ccc(/C=C2\SC(=O)NC2=O)cc1` [I-5-23], in that order: 515 nm, 433 nm and 156.
The corresponding values for `CN1CCCc2cc(/C=C3\SC(=O)NC3=O)ccc21` [I-5-39] are 509 nm, 429 nm and 14.
As to `CN(CCO)c1ccc(-c2ccc(/C=C3\SC(=S)NC3=O)s2)cc1` [I-5-61], in data set [2], the “Maximum emission peak (nm)” value is recorded as 677 nm, the “Maximum excitation peak (nm)” value was 483 nm and the “Activation Multiple” value was 6.
Consider “N16-3: base-modified N16-1, SEQ ID NO: 5, some of the bases modified by 2′-F (GGGCNCCAGGNGCNGCNNCGGCAGGNAACGGACNNAGANCCACNGNACGCCC; some nucleotides 2'-fluoro modified, positions not given here)”, for which the “fluorescence activation effect of base-modified N16-1 for I-5-14” value in data set [1] is “significantly activate”.
Turning to `CCN1C(=O)S/C(=C\c2ccc3c(c2)C(C)=CC(C)(C)N3C)C1=O` [I-5-44], in data set [2], the “Maximum emission peak (nm)” value is given as 549 nm, the “Maximum excitation peak (nm)” value was found to be 459 nm and the “Activation Multiple” value was 21.
